Assays:
Assay in all cases: biochemical
Assay type in all cases: biochemical
382 unique human kinases [1] = molecular target: T1, 382 unique human kinases (Homo sapiens, UniProt Q9NWZ3); settings: kinase IRAK4, compound 10 uM; for remaining activity at 10 µM: read-out: % Enzyme Activity (relative to DMSO controls)
T1 construct: purchased Reaction Biology (HotSpot contract assay)
T1 sequence (Q9NWZ3 1-460): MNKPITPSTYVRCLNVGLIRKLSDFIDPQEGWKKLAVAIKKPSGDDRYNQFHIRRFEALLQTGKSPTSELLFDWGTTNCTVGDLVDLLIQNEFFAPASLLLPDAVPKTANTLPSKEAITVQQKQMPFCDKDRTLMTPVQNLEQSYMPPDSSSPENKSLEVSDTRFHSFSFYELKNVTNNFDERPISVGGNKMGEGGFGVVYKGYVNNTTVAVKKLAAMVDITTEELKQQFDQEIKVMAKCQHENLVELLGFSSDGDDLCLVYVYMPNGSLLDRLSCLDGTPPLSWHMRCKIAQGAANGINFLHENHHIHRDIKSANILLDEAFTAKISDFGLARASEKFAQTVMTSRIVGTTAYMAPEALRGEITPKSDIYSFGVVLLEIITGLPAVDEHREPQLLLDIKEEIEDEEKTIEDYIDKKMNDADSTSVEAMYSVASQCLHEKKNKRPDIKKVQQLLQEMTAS

382 unique human kinases [2] = molecular target: T2, 382 unique human kinases (Homo sapiens, UniProt Q8WXR4); settings: kinase MYO3b, compound 10 uM; for remaining activity at 10 µM: read-out: % Enzyme Activity (relative to DMSO controls)
T2 construct: purchased Reaction Biology (HotSpot contract assay)
T2 sequence (Q8WXR4 1-1341): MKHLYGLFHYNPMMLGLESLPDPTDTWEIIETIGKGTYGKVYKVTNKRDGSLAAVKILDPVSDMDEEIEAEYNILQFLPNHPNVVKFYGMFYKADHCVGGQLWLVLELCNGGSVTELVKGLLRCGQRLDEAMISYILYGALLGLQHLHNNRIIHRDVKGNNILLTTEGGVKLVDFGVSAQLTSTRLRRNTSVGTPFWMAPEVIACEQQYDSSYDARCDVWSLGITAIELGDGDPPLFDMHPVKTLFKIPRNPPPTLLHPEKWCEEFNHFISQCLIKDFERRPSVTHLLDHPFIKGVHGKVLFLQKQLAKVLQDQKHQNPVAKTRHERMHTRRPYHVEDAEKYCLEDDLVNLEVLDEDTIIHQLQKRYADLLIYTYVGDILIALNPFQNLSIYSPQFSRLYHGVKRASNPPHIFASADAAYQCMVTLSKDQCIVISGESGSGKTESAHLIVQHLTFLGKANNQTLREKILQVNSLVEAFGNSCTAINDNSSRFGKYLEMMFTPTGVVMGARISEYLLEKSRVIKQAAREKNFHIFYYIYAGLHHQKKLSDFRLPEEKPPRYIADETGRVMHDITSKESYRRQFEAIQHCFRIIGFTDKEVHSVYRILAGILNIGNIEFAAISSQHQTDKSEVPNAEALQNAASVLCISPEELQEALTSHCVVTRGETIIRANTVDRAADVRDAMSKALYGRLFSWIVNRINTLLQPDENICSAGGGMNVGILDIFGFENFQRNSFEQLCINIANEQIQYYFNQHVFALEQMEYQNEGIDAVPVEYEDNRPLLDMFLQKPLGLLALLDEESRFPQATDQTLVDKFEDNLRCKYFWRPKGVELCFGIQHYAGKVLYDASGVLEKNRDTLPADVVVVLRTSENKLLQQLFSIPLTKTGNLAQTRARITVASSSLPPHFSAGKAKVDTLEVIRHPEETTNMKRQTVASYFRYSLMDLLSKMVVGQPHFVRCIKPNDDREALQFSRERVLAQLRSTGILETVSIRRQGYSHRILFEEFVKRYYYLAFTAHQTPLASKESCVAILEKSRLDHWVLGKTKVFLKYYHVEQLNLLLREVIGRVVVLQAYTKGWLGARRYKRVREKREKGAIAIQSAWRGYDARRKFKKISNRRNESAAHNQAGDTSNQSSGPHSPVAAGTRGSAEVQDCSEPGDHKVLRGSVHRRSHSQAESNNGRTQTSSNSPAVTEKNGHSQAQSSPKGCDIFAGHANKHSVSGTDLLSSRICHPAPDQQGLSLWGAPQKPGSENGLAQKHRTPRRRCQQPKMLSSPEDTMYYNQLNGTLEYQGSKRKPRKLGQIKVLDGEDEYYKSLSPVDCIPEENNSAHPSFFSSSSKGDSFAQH

382 unique human kinases [3] = molecular target: T3, 382 unique human kinases (Homo sapiens, UniProt P10721, D820Y); settings: c-Kit (D820Y), 10 uM; for remaining activity at 10 µM: read-out: % Enzyme Activity (relative to DMSO controls)
T3 construct: purchased Reaction Biology (HotSpot contract assay)
T3 sequence (P10721 26-976 D820Y): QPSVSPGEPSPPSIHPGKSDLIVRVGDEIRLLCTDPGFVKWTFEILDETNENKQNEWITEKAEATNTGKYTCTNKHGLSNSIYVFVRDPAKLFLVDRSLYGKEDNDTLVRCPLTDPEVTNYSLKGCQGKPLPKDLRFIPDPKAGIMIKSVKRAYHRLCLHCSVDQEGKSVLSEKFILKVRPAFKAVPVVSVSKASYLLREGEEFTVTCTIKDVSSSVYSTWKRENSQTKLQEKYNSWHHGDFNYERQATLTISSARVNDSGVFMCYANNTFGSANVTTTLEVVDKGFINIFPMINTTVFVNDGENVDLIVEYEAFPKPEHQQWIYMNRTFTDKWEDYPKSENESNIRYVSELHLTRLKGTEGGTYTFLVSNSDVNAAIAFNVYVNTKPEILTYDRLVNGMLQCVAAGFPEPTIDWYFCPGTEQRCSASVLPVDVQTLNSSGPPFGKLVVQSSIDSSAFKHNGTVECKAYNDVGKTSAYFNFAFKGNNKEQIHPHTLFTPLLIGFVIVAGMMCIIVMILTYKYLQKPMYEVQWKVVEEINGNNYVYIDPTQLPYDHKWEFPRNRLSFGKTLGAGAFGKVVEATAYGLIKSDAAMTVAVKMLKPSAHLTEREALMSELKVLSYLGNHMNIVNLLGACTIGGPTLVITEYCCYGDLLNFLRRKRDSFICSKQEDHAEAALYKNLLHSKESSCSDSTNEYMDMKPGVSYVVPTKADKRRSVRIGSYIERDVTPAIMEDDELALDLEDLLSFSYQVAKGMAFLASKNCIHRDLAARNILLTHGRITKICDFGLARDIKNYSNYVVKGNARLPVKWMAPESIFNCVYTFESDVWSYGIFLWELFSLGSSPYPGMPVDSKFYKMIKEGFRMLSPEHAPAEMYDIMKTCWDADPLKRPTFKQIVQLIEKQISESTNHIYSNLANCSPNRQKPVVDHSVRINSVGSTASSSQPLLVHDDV

382 unique human kinases [4] = molecular target: T4, 382 unique human kinases (Homo sapiens, UniProt Q9H4A3); settings: WNK1, 10 uM; for remaining activity at 10 µM: read-out: % Enzyme Activity (relative to DMSO controls)
T4 construct: purchased Reaction Biology (HotSpot contract assay)
T4 sequence (Q9H4A3 whole entry): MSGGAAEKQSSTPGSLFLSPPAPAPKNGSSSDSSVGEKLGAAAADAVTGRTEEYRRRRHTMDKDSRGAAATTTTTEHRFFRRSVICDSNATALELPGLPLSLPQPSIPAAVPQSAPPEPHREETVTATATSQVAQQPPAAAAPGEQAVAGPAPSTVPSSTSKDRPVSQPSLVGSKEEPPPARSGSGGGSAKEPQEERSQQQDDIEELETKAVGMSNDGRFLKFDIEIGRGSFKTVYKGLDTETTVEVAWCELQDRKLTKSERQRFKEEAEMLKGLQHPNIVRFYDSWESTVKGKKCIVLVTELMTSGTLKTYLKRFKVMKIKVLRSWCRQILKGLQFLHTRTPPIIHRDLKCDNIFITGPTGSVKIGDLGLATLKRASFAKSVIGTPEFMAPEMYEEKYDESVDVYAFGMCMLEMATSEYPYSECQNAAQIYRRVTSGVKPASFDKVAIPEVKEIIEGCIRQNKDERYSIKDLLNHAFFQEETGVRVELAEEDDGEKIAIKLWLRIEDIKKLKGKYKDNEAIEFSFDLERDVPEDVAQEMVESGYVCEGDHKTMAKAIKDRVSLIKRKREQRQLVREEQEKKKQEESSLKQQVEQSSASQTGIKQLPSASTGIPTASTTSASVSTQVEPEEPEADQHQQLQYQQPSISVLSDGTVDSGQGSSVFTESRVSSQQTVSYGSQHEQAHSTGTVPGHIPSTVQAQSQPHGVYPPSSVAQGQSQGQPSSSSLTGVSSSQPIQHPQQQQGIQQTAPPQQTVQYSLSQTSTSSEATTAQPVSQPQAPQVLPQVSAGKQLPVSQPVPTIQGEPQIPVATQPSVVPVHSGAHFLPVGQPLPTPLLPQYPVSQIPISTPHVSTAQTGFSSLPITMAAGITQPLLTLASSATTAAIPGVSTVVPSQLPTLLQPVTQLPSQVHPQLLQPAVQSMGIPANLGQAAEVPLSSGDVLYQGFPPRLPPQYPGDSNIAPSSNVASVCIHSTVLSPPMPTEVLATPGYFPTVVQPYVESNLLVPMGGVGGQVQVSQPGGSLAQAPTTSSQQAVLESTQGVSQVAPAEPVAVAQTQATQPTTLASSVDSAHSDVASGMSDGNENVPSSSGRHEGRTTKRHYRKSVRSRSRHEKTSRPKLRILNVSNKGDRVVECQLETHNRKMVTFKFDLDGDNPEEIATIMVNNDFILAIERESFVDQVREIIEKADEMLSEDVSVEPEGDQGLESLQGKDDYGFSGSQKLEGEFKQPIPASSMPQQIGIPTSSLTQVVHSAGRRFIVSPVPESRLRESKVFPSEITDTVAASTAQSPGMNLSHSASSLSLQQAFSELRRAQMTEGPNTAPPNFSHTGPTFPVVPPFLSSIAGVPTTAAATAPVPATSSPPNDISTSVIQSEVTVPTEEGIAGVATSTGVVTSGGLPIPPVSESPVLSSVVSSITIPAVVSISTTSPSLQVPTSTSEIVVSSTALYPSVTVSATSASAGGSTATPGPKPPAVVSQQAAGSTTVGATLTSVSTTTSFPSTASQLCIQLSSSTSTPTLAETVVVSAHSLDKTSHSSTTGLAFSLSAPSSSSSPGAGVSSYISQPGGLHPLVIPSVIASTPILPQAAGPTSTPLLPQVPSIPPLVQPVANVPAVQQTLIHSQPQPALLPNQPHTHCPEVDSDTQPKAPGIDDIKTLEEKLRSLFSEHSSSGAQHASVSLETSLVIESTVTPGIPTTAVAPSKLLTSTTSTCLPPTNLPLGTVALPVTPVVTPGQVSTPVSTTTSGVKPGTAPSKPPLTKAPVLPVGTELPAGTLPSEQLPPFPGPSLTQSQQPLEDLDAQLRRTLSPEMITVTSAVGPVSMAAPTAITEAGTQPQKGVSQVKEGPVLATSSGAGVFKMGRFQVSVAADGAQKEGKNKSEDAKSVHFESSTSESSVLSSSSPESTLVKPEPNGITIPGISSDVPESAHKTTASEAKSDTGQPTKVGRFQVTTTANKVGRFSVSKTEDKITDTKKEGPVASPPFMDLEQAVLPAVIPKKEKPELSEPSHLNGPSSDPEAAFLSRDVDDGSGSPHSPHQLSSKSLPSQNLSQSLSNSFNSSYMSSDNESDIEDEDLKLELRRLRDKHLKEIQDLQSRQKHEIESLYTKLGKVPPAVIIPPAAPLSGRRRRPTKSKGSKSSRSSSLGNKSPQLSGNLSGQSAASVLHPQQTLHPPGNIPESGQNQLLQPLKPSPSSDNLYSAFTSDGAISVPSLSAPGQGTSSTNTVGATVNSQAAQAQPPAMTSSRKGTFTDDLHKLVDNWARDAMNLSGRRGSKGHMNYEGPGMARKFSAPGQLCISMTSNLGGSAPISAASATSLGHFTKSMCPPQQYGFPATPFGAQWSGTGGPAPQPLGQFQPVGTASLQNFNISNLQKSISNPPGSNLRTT

382 unique human kinases [5] = molecular target: T5, 382 unique human kinases (Homo sapiens, UniProt P07332); settings: FES/FPS, 10 uM; for remaining activity at 10 µM: read-out: % Enzyme Activity (relative to DMSO controls)
T5 construct: purchased Reaction Biology (HotSpot contract assay)
T5 sequence (P07332 whole entry): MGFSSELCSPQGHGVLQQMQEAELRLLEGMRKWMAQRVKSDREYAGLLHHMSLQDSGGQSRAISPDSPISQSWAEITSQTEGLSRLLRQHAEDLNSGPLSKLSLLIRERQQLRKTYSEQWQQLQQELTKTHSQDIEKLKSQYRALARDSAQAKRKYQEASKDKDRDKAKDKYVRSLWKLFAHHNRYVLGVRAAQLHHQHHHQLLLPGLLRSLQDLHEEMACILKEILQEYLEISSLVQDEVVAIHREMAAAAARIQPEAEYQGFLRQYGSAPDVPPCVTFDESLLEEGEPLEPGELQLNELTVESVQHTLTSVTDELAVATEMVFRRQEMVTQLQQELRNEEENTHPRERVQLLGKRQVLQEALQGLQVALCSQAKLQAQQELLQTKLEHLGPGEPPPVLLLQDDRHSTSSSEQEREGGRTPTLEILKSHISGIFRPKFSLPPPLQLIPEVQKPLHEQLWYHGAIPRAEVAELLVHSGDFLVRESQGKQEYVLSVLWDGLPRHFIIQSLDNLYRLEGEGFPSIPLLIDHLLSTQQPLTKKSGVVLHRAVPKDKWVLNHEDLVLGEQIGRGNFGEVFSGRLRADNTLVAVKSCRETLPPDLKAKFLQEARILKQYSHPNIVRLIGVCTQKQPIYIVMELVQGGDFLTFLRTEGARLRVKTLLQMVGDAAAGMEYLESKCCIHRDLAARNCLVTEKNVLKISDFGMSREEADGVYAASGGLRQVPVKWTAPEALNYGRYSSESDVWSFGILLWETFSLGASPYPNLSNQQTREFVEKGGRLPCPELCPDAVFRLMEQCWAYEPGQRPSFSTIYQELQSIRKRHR

382 unique human kinases [6] = molecular target: T6, 382 unique human kinases (Homo sapiens, UniProt P00533, DEL746-750/T790M); settings: EGFR (d746-750/T790M), 10 uM; for remaining activity at 10 µM: read-out: % Enzyme Activity (relative to DMSO controls)
T6 construct: purchased Reaction Biology (HotSpot contract assay)

382 unique human kinases [7] = molecular target: T7, 382 unique human kinases (Homo sapiens, UniProt Q15118); settings: PDK1/PDHK1, [ATP] 50 µM, compound 10 uM; for remaining activity at 10 µM: read-out: % Enzyme Activity (relative to DMSO controls)
T7 construct: purchased Reaction Biology (HotSpot contract assay)
T7 sequence (Q15118 29-436): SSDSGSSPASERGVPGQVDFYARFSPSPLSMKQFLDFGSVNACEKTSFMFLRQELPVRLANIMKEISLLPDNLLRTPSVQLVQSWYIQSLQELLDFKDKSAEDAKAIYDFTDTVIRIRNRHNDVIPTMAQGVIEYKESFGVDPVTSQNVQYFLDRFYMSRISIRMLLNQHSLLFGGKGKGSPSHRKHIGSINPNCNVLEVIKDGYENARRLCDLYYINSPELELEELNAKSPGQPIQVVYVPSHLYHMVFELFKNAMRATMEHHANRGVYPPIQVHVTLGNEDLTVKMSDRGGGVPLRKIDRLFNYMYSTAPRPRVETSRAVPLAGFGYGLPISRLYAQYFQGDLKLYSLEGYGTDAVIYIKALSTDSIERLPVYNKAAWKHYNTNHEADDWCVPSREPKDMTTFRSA

382 unique human kinases [8] = molecular target: T8, 382 unique human kinases (Homo sapiens, UniProt Q8N5S9); settings: CAMKK1, 10 uM; for remaining activity at 10 µM: read-out: % Enzyme Activity (relative to DMSO controls)
T8 construct: purchased Reaction Biology (HotSpot contract assay)
T8 sequence (Q8N5S9 whole entry): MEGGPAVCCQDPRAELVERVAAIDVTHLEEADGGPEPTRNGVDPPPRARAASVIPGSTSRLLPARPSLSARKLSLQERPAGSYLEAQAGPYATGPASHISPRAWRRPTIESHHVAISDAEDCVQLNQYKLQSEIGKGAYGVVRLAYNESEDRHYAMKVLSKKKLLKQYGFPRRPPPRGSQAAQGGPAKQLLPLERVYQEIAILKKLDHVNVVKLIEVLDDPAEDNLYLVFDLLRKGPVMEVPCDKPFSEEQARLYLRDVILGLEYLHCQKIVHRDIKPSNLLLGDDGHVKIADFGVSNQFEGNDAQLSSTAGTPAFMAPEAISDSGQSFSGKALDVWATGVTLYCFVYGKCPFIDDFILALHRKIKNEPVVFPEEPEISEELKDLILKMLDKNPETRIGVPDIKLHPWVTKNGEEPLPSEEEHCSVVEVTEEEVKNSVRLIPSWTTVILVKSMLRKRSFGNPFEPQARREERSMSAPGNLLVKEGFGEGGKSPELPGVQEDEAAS

SMILES	remaining activity at 10 µM (382 unique human kinases [1])	remaining activity at 10 µM (382 unique human kinases [2])	remaining activity at 10 µM (382 unique human kinases [3])	remaining activity at 10 µM (382 unique human kinases [4])	remaining activity at 10 µM (382 unique human kinases [5])	remaining activity at 10 µM (382 unique human kinases [6])	remaining activity at 10 µM (382 unique human kinases [7])	remaining activity at 10 µM (382 unique human kinases [8])	% Enzyme Activity (relative to DMSO controls) (382 unique human kinases [5])	% Enzyme Activity (relative to DMSO controls) (382 unique human kinases [6])	% Enzyme Activity (relative to DMSO controls) (382 unique human kinases [7])	% Enzyme Activity (relative to DMSO controls) (382 unique human kinases [8])	% Enzyme Activity (relative to DMSO controls) (382 unique human kinases [1])	% Enzyme Activity (relative to DMSO controls) (382 unique human kinases [2])	% Enzyme Activity (relative to DMSO controls) (382 unique human kinases [3])	% Enzyme Activity (relative to DMSO controls) (382 unique human kinases [4])
CC(C)c1cc(-c2n[nH]c(=O)n2-c2ccc3c(ccn3C)c2)c(O)cc1O [Ganetespib (STA9090)]	81.5%	88.2%	62.7%	94.2%	–	–	–	–	–	–	–	–	–	–	–	–
CC(C)c1cc(-c2n[nH]c(=O)n2-c2ccc3c(ccn3C)c2)c(O)cc1O [Ganetespib]	–	–	–	–	98.6%	118%	54.4%	99%	–	–	–	–	–	–	–	–
CCNC(=O)c1noc(-c2cc(C(C)C)c(O)cc2O)c1-c1ccc(CN2CCOCC2)cc1 [Luminespib]	–	–	–	–	99.4%	100%	60%	104%	99.33%	99.12%	56.21%	103.58%	–	–	–	–
CCNC(=O)c1noc(-c2cc(C(C)C)c(O)cc2O)c1-c1ccc(CN2CCOCC2)cc1 [Luminespib (AUY-922)]	118%	113%	71.4%	70.4%	–	–	–	–	–	–	–	–	106.93%	111.45%	70.30%	68.64%

Reference: paper PMC8550792, “Evolution of kinase polypharmacology across HSP90 drug discovery” (Cell Chemical Biology, 2021)
